Values after ≈ are worked out from the molar mass of the structure shown.
Key:
Format in all cases: functional
[1] = Cytotoxicity against human HepG2 cells after 48 hrs by MTT assay; settings: HepG2, 48 h
[2] = Cytotoxicity against human HeLa cells after 48 hrs by MTT assay
[3] = Cytotoxicity against human MCF7 cells after 48 hrs by MTT assay; settings: MCF7, 48 h
[4] = Antioxidant activity assessed as ABTS radical scavenging activity at 100 ug/ml after 30 mins
[5] = tested on: Escherichia coli; experiment: Antibacterial activity against Escherichia coli after 24 hrs by two fold dilution method
[6] = tested on: Staphylococcus epidermidis; experiment: Antibacterial activity against Staphylococcus epidermidis after 24 hrs by two fold dilution method
[7] = Antioxidant activity assessed as reduction in AAPH free radical-induced linoleic acid peroxidation activity measured at 100 ug/ml by UV spectroscopic analysis; parameters: scale not given: the % may be the effect or the level left
[8] = Antifungal activity against Microsporum audouinii after 24 hrs by two fold dilution method
[9] = tested on: Pseudomonas aeruginosa; experiment: Antibacterial activity against Pseudomonas aeruginosa after 24 hrs by two fold dilution method
[10] = tested on: Aspergillus niger; experiment: Antifungal activity against Aspergillus niger after 24 hrs by two fold dilution method
[11] = Antifungal activity against Cryptococcus neoformans after 24 hrs by two fold dilution method
[12] = tested on: Staphylococcus aureus; experiment: Antibacterial activity against Staphylococcus aureus after 24 hrs by two fold dilution method
[13] = tested on: Klebsiella pneumoniae; experiment: Antibacterial activity against Klebsiella pneumoniae after 24 hrs by two fold dilution method
[14] = tested on: Candida albicans; experiment: Antifungal activity against Candida albicans after 24 hrs by two fold dilution method

SMILES	GI50 [1]	TGI [1]	GI50 [2]	TGI [2]	GI50 [3]	TGI [3]	Activity [4]	LC50 [1]	MIC [5]	MIC [6]	Activity [7]	MIC [8]	MIC [9]	MIC [10]	MIC [11]	MIC [12]	MIC [13]	MIC [14]	LC50 [2]	LC50 [3]
COc1cccc2c1C(=O)c1c(O)c3c(c(O)c1C2=O)C[C@@](O)(C(=O)CO)C[C@@H]3O[C@H]1C[C@H](N)[C@H](O)[C@H](C)O1 [DOXORUBICIN]	0.01 µM	0.13 µM	0.05 µM	0.41 µM	0.02 µM	0.21 µM														
CC(C)=CCC/C(C)=C\C(N1CCOCC1)N1C(c2ccccc2)CC(O)N1c1ccc([N+](=O)[O-])cc1[N+](=O)[O-] (configuration not stated)	38.1 µM	69.1 µM	13.8 µM	29.6 µM	7.8 µM	21.9 µM	91.3%	> 100 µM	64 µg/mL (≈ 116 µM)	8 µg/mL (≈ 14.5 µM)	84.5%	16 µg/mL (≈ 29 µM)	1 µg/mL (≈ 1.81 µM)	8 µg/mL (≈ 14.5 µM)	32 µg/mL (≈ 58 µM)	> 100 µg/mL	8 µg/mL (≈ 14.5 µM)	0.5 µg/mL (≈ 0.906 µM)	71.4 µM	40.4 µM
Cc1c(C)c2c(c(C)c1O)CCC(C)(C(=O)O)O2 (configuration not stated)							85.2%				62.3%									
O=[N+]([O-])c1ccc(N2C(O)CC(c3ccccc3)N2C(c2ccc3c(c2)OCO3)N2CCOCC2)c([N+](=O)[O-])c1 (configuration not stated)	21.3 µM	41 µM	52.9 µM	81.3 µM	12.9 µM	45.3 µM	34.5%	62.1 µM	> 100 µg/mL	> 100 µg/mL	29.8%	32 µg/mL (≈ 58.2 µM)	2 µg/mL (≈ 3.64 µM)	8 µg/mL (≈ 14.6 µM)	64 µg/mL (≈ 116 µM)	> 100 µg/mL	64 µg/mL (≈ 116 µM)	16 µg/mL (≈ 29.1 µM)	> 100 µM	87.2 µM
O=[N+]([O-])c1ccc(N2C(O)CC(c3ccccc3)N2C(c2ccc(O)cc2)N2CCOCC2)c([N+](=O)[O-])c1 (configuration not stated)	36.3 µM	65.3 µM	41.3 µM	87.2 µM			81.6%	> 100 µM	> 100 µg/mL		75.4%	8 µg/mL (≈ 15.3 µM)	15 µg/mL (≈ 28.8 µM)	> 100 µg/mL			8 µg/mL (≈ 15.3 µM)		> 100 µM	> 100 µM
O=[N+]([O-])c1ccc(C(N2CCOCC2)N2C(c3ccccc3)CC(O)N2c2ccc([N+](=O)[O-])cc2[N+](=O)[O-])cc1 (configuration not stated)	49 µM	77.3 µM	8.9 µM	16.8 µM	20.8 µM	59.3 µM	58.3%	> 100 µM	64 µg/mL (≈ 116 µM)	2 µg/mL (≈ 3.63 µM)	47.9%	32 µg/mL (≈ 58.1 µM)			32 µg/mL (≈ 58.1 µM)	1 µg/mL (≈ 1.82 µM)			43.9 µM	> 100 µM
O=[N+]([O-])c1ccc(N2C(O)CC(c3ccccc3)N2C(c2ccc(Cl)cc2)N2CCOCC2)c([N+](=O)[O-])c1 (configuration not stated)	12.2 µM	23.1 µM	51 µM	89.2 µM	46.1 µM	85.1 µM	41.9%	42.8 µM	0.5 µg/mL (≈ 0.926 µM)	> 100 µg/mL	32%	64 µg/mL (≈ 119 µM)	64 µg/mL (≈ 119 µM)	64 µg/mL (≈ 119 µM)	64 µg/mL (≈ 119 µM)	64 µg/mL (≈ 119 µM)	64 µg/mL (≈ 119 µM)	1 µg/mL (≈ 1.85 µM)	> 100 µM	> 100 µM
O=C(O)c1cn(C2CC2)c2cc(N3CCNCC3)c(F)cc2c1=O [CIPROFLOXACIN]										4 µg/mL (≈ 12.1 µM)			1 µg/mL (≈ 3.02 µM)			0.5 µg/mL (≈ 1.51 µM)	2 µg/mL (≈ 6.04 µM)			
